Test results taken from US12459930B2, “Compounds for the inhibition of unregulated cell growth” (GODAVARI BIOREFINERIES LIMITED, priority 2018, dated 2025).
Where a name gives a salt, the structure may show the parent alone. Read-outs that look alike come from different tables or passages of the source.

Assays:
[1] = tested on: MDAMB231 breast cancer cell line; assay: In vitro antiproliferative assay (MTT assay), MDAMB231; type: cell-based; settings: 48 hrs drug incubation, read-out: IC50 in micromolar, MDAMB231 (MTT assay)
Experimental: (§1) MTT assay is a simple and sensitive assay where, metabolic reducing activity of the cells is measured. The increase of this activity in time is taken as a parameter of cell growth. If treatment with a drug impairs this increase, the action is a consequence of growth inhibition, cell killing or both. […] All cell lines were cultured in a 37° C. incubator with a 5% CO2 environment. Compounds were dissolved in DMSO with a concentration of 0.1M (stock solution). Cells were seeded into 96-well plates at suitable plating efficiency.
(§2) Following plating efficiencies were standardized for MTT assay:
(§3) In the MTT procedure, the cells were plated in 96 well plates as per predetermined plating efficiency (Table1). The plates were then incubated for 24 hrs in 5% CO2 atmosphere at 37° C. Appropriate concentrations of the drugs were then added to the plate and further incubation was carried out for 48 hrs (in 5% CO2 atmosphere at 37° C.). The assay plate was then centrifuged twice at 3000 rpm for 3 mins and supernatant was then discarded. 100 ul of MTT solution (0.5 mg/ml) was then added to each well of the plate and it was further incubated for 4 hrs (in 5% CO2 atmosphere at 37° C.) Following 4 hr incubation, the plate was then centrifuged twice, and supernatant was aspirated off very carefully. 200 ul of DMSO was then added to each well to solubilize. MTT crystals and mixed well by shaking the plate. XY graph of log percent viability was then plotted against log drug concentration.

[2] = tested on: PC3 spheres (cancer stem cells); assay: In vitro sphere-forming assay (cancer stem cells), PC3 in Prostosphere media; settings: for 3D sphere count of PC3 in Prostosphere media: 2000 cells/well, n = 6 ± S.D; for viability at 0.0025 µM: read-out: % Viability of spheres (PC3), 0.0025 uM; for viability at 0.025 µM: read-out: % Viability of spheres (PC3), 0.025 uM; for viability at 0.25 µM: read-out: % Viability of spheres (PC3), 0.25 uM; for viability at 2.5 µM: read-out: % Viability of spheres (PC3), 2.5 uM; for viability at 25 µM: read-out: % Viability of spheres (PC3), 25 uM
[3] = tested on: MDAMB231 spheres (cancer stem cells); assay: In vitro sphere-forming assay (cancer stem cells), MDAMB231 in Mammosphere media; settings: for 3D sphere count of MDAMB231 in Mammosphere media: 2000 cells/well, n = 6 ± S.D; for viability at 0.0025 µM / viability at 0.025 µM / viability at 0.25 µM / viability at 2.5 µM / viability at 25 µM: Homo sapiens, MDA-MB-231, read-out: % Viability of spheres (MDAMB231)
Experimental: In Vitro Sphere-forming Assay: Sphere assay measures the ability of cancer stem cells (CSCs) to form spheres in specially designed serum-free medium.
Mammosphere Media Preparation (For 100 mL): 1 g methyl cellulose autoclaved with magnetic stirrer, 100 ml plain media (MEBM) was added and dissolved under magnetic stirring. After complete dissolution FGF—80 μL, EGF—40 μL, Penstrep—1 mL, Heparin—400 μL was added.
Procedure—The cells were trypsinised and made into single-cell suspension by passing through cell strainers (100 μl and 40 μl, respectively), The cells were diluted at a concentration of 2000 cells/100 μL and suspended in either Mammosphere (for breast cell lines) or Prostosphere (for prostate cell lines). 100 μL of this suspension was added into each well of 96-well suspension plates and incubated at 37 C, 50 CO2 for 24 hrs. Appropriate concentrations of the drugs (2 L) were added into respective wells with 100 μL of stem cell culture medium. Plates were incubated at 37° C., 50% CO2 for 72 hrs. After incubation, 2.5 μL of the respective drug concentration and 50 μL of stem cell culture medium were added into each well and the plates were further incubated at 37° C., 500 CO2 for 72 hrs. 3 μL of the respective drug concentration was added with 50 μL of stem cell culture medium again after incubation and plates were reincubated for 72 hrs at 37° C., 500 CO2. Number of primary spheres formed for each concentration were counted. The spheres were converted to 0 viability of spheres compared to untreated (Growth Control with DMSO, GCD).

[4] = tested on: DU145 prostate cancer cell line; assay: In vitro antiproliferative assay (MTT assay), DU145; type: cell-based; settings: 48 hrs drug incubation, read-out: IC50 in micromolar, DU145 (MTT assay)
Experimental: as §1, §2, §3

[5] = tested on: PC3 prostate cancer cell line; assay: In vitro antiproliferative assay (MTT assay), PC3; type: cell-based; settings: 48 h, 48 hrs drug incubation, read-out: IC50 in micromolar, PC3 (MTT assay)
Experimental: as §1, §2, §3

[6] = tested on: MDAMB231 breast cancer cell line; assay: Soft agar colony-formation assay, MDAMB231; type: cell-based; settings: 1 week, Alamar Blue, read-out: IC50 in micromolar, MDAMB231 (Soft Agar Assay)
Experimental: (§4) The Soft Agar Colony-formation Assay is an anchorage-independent growth assay in soft agar, which is one of the most stringent assays for detecting malignant transformation of cells. For this assay, malignant cells are cultured with appropriate controls in soft agar medium for 1-2 weeks. Following this incubation period, formed colonies can either be analyzed morphologically using cell stain and quantifying the number of colonies formed.
(§5) Briefly, for Soft Agar Assay a mixture of 50 ul of 2× medium (taken appropriately as per cell line) and 50 ul of 1.2% Bacto Agar were plated on to each well of 96 well micro titer assay plate. 10 ul of cells (of specific plating efficiency pre standardized for respective cell line) were mixed with 20 ul of 2× medium and 30 ul of 0.8% of Bacto Agar and 1.6 ul of drug (of appropriate concentration) in a vial and transferred to the solidified pre layers of the assay plates. The cells were then allowed to grow and form colonies at 37° C. and 5% C02 for 1 week. An intermittent feeding with 50 ul of appropriate 2× medium was performed after 3 days of experimental set up. 16 ul of Alamar Blue (1.5 mg/ml) was then added to all the wells to quantify the developed colonies. The plates were incubated for 24 hrs at 37° C. Absorbance was then measured at 630 nm. XY graph of log Percent viability was then plotted against log drug concentration.
(§6) Following plating efficiencies were standardized for Soft Agar Assay: […]

[7] = tested on: PC3 prostate cancer cell line; assay: Soft agar colony-formation assay, PC3; type: cell-based; settings: 1 week, Alamar Blue, read-out: IC50 in micromolar, PC3 (Soft Agar Assay)
Experimental: as §4, §5, §6

[8] = Homo sapiens, MDA-MB-231, 168 h

Compound	IC50 ([1]; Homo sapiens, MDA-MB-231, 48 h)	IC50 ([4]; Homo sapiens, DU-145, 48 h)	IC50 [5]	3D sphere count of PC3 in Prostosphere media ([2]; 0.0025 uM)	3D sphere count of PC3 in Prostosphere media ([2]; 0.025 uM)	3D sphere count of PC3 in Prostosphere media ([2]; 0.25 uM)	3D sphere count of PC3 in Prostosphere media ([2]; 2.5 uM)	3D sphere count of PC3 in Prostosphere media ([2]; 25 uM)	viability at 0.0025 µM ([2]; GCD = 100% viability)	viability at 0.025 µM ([2]; GCD = 100% viability)	viability at 0.25 µM ([2]; GCD = 100% viability)	viability at 2.5 µM ([2]; GCD = 100% viability)	viability at 25 µM ([2]; GCD = 100% viability)	3D sphere count of MDAMB231 in Mammosphere media ([3]; 0.0025 uM)	3D sphere count of MDAMB231 in Mammosphere media ([3]; 0.025 uM)	3D sphere count of MDAMB231 in Mammosphere media ([3]; 0.25 uM)	3D sphere count of MDAMB231 in Mammosphere media ([3]; 2.5 uM)	3D sphere count of MDAMB231 in Mammosphere media ([3]; 25 uM)	viability at 0.0025 µM [3]	viability at 0.025 µM [3]	further results
C=CCNCCCCCCOc1ccc(-c2ccc3c(c2)OCO3)c2c1CCCC2 [Formula XXII, 6-(5-(benzo[d][1,3]dioxol-5-yl)-1,2,3,4-tetrahydronaphthalen-8-yloxy)-N-allylhexan-1-amine]	1.35 µM	1.48 µM	2.45 µM	55(±3)	44(±4)	36(±3)	25(±3)	14(±3)	66%	52%	43%	30%	17%	47(±3)	34(±3)	24(±4)	9(±2)	0(±0)	55%	39%	viability at 0.25 µM [3]: 28%; viability at 2.5 µM [3]: 10%; viability at 25 µM [3]: 0%
c1ccc2c(-c3ccc4c(c3)OCO4)ccc(OCCN3CCOCC3)c2c1 [Formula X, 4-(2-(1-(benzo[d][1,3]dioxol-5-yl)naphthalen-4-yloxy)ethyl)morpholine]	5.36 µM	5.96 µM	4 µM	74(±4)	61(±3)	53(±3)	42(±4)	28(±3)	87%	72%	62%	49%	33%	57(±5)	42(±4)	34(±3)	21(±3)	7(±3)	69%	51%	IC50 [6, 8]: 4.18 µM; viability at 0.25 µM [3]: 41%; viability at 2.5 µM [3]: 25%; viability at 25 µM [3]: 8%; IC50 ([7]; 168 h): 10.3 µM
COc1cc2c(OCCCCN3CCOCC3)c3c(c(-c4ccc5c(c4)OCO5)c2cc1OC)C(=O)OC3 [Formula VI, 4-(4-morpholinobutoxy)-9-(benzo[d][1,3]dioxol-5-yl)-6,7-dimethoxynaphtho[2,3-c]furan-1(3H)-one]	–	–	–	–	49(±2)	41(±2)	37(±2)	27(±2)	–	57%	48%	43%	31%	–	–	–	–	–	–	–	IC50 [6]: 2.69 µM; IC50 [1]: 10.9 µM; 3D sphere count of PC3 in Prostosphere media ([2]; 250 uM): 0(±0); viability at 250 µM ([2]; read-out: % Viability of spheres (PC3), 250 uM, GCD = 100% viability): 0%; IC50 [7]: 2.65 µM; IC50 [4]: 4.05 µM
c1cnc2c(OCCCCNC3CCCCC3)ccc(-c3ccc4c(c3)OCO4)c2c1 [Formula XVII, N-(4-(5-(benzo[d][1,3]dioxol-5-yl)quinolin-8-yloxy)butyl)cyclohexanamine]	2.13 µM	1.99 µM	2.82 µM	–	–	–	–	–	–	–	–	–	–	–	–	–	–	–	–	–	–

More lines, main results first:

IC50 ([1]; Homo sapiens, MDA-MB-231, 48 h)	IC50 ([4]; Homo sapiens, DU-145, 48 h)	IC50 [5]	Compound	3D sphere count of PC3 in Prostosphere media ([2]; 0.0025 uM)	3D sphere count of PC3 in Prostosphere media ([2]; 0.025 uM)	3D sphere count of PC3 in Prostosphere media ([2]; 0.25 uM)	3D sphere count of PC3 in Prostosphere media ([2]; 2.5 uM)	3D sphere count of PC3 in Prostosphere media ([2]; 25 uM)	viability at 0.0025 µM ([2]; GCD = 100% viability)	viability at 0.025 µM ([2]; GCD = 100% viability)	viability at 0.25 µM ([2]; GCD = 100% viability)	viability at 2.5 µM ([2]; GCD = 100% viability)	viability at 25 µM ([2]; GCD = 100% viability)	3D sphere count of MDAMB231 in Mammosphere media ([3]; 0.0025 uM)	3D sphere count of MDAMB231 in Mammosphere media ([3]; 0.025 uM)	3D sphere count of MDAMB231 in Mammosphere media ([3]; 0.25 uM)	3D sphere count of MDAMB231 in Mammosphere media ([3]; 2.5 uM)	3D sphere count of MDAMB231 in Mammosphere media ([3]; 25 uM)	viability at 0.0025 µM [3]	viability at 0.025 µM [3]	further results
3.8 µM	3.52 µM	5.52 µM	c1cnc2c(OCCCCCCN3CCOCC3)ccc(-c3ccc4c(c3)OCO4)c2c1 [Formula XVI, 8-(6-morpholinohexyloxy)-5-(benzo[d][1,3]dioxol-5-yl)quinoline]	72(±6)	53(±4)	42(±4)	34(±3)	25(±4)	86%	63%	50%	40%	30%	61(±3)	51(±3)	42(±3)	37(±3)	22(±4)	71%	59%	viability at 0.25 µM [3]: 49%; viability at 2.5 µM [3]: 43%; viability at 25 µM [3]: 25%
4.2 µM	4.26 µM	3.86 µM	c1cc2c(cc1-c1ccc(OCCN3CCOCC3)c3c1CCCC3)OCO2 [Formula XXI, 4-(2-(5-(benzo[d][1,3]dioxol-5-yl)-1,2,3,4-tetrahydronaphthalen-8-yloxy)ethyl) morpholine]	62(±4)	54(±2)	50(±2)	45(±3)	36(±2)	78%	68%	63%	57%	45%	–	–	–	–	–	–	–	IC50 [6, 8]: 4.34 µM; IC50 ([7]; 168 h): 2.75 µM
10.9 µM	10.7 µM	–	CCOC(=O)N1CCN(CCCCCCOc2c3c(c(-c4ccc5c(c4)OCO5)c4cc(OC)c(OC)cc24)C(=O)OC3)CC1 [Formula IX, ethyl 4-(6-(9-(benzo[d][1,3]dioxol-5-yl)-1,3-dihydro-6,7-dimethoxy-1-oxonaphtho[2,3-c]furan-4-yloxy)hexyl)piperazine-1-carboxylate Hydrochloride]	–	–	–	–	–	–	–	–	–	–	–	–	–	–	–	–	–	IC50 ([6]; hydrochloride): 0.327 µM; IC50 ([7]; 168 h): 3.29 µM
4.95 µM	2.51 µM	7.82 µM	O=C(CCCOc1ccc(-c2ccc3c(c2)OCO3)c2ccccc12)N1CCOCC1 [Formula XV, 4-(1-(benzo[d][1,3]dioxol-5-yl)naphthalen-4-yloxy)-1-morpholinobutan-1-one]	–	–	–	–	–	–	–	–	–	–	53(±2)	51(±5)	40(±6)	31(±3)	16(±4)	64%	62%	IC50 [6, 8]: 5.36 µM; viability at 0.25 µM [3]: 49%; viability at 2.5 µM [3]: 38%; viability at 25 µM [3]: 19%; IC50 ([7]; 168 h): 3.06 µM
